Data published in patent US20260125371A1, “METHOD FOR INHIBITING CLOSTRIDIOIDES DIFFICILE SPORE GERMINATION” (UNIVERSITY OF NOTRE DAME DU LAC, priority 2022, published 2026).
≈ marks a conversion by molar mass, not a printed value. Like-named read-outs stand apart in the source and are kept apart here.

Columns and labels:
C. difficile ATCC 43255 [1] = experiment: Determination of minimal-inhibitory concentrations (microdilution), C. difficile ATCC 43255; assay type: cell-based, Clostridioides difficile; settings: Clostridioides difficile
S. aureus = experiment: MIC against S. aureus strains; assay type: cell-based
THP-1 cells = experiment: Lactate dehydrogenase (LDH) cytotoxicity assay; assay type: cell-based, human; settings: Homo sapiens
C. difficile ATCC 43255 [2] = settings: cited from earlier work
[3] = tested on: Bacteroides fragilis HM-709; settings: cited from earlier work
[4] = tested on: Bifidobacterium longum HM-846; settings: cited from earlier work
[5] = tested on: Corynebacterium spp. HM-784; settings: cited from earlier work
[6] = tested on: Fusobacterium nucleatum HM-992; settings: cited from earlier work
[7] = tested on: Lactobacillus reuteri HM-102; settings: cited from earlier work
Veillonella sp. HM-49 = settings: cited from earlier work
Eubacterium sp. HM-178 = settings: cited from earlier work
[8] = tested on: S. haemolyticus ATCC 29970; experiment: MIC against S. haemolyticus; assay type: cell-based; settings: Staphylococcus haemolyticus, ATCC29970
E. faecium = experiment: MIC against E. faecium strains; assay type: cell-based
A. baumanii ATCC17961 = experiment: MIC against A. baumanii; assay type: cell-based; settings: Acinetobacter baumannii; A. baumanii ATCC17961; read-out: MIC
P. aeruginosa ATCC27853 = experiment: MIC against P. aeruginosa; assay type: cell-based; settings: Pseudomonas aeruginosa; P. aeruginosa ATCC27853; read-out: MIC
E. aerogenes ATCC35029 = experiment: MIC against E. aerogenes; assay type: cell-based; settings: Klebsiella aerogenes; E. aerogenes ATCC35029; read-out: MIC
E. coli ATCC25922 = experiment: MIC against E. coli; assay type: cell-based; settings: Escherichia coli; E. coli ATCC25922; read-out: MIC
Gram-negative bacteria = assay type: cell-based
C. difficile ATCC 43255 [9] = experiment: Minimal-bactericidal concentration (MBC); assay type: cell-based, Clostridioides difficile; settings: MBC/MIC≤4 indicates bactericidal
[10] = ATCC43255, 24 h, C. difficile ATCC 43255, 24 h, read-out: MIC (μg/mL) 24 h
[11] = ATCC43255, Table 1, strain ATCC 43255, read-out: MIC C. difficile
[12] = Staphylococcus aureus, ATCC29213, 24 h, S. aureus ATCC 29213, 24 h, read-out: MIC (μg/mL) 24 h
[13] = C. difficile ATCC 43255, earlier publication
[14] = THP-1, 24 h, read-out: LDH (IC50)
[15] = Staphylococcus aureus, S. aureus VRS1, read-out: MIC
[16] = S. haemolyticus ATCC 29970, read-out: MIC
[17] = Enterococcus faecium, read-out: MIC

Row | SMILES | MIC (C. difficile ATCC 43255 [1]; [10]) [µg/mL] | MIC (C. difficile ATCC 43255 [1]; [11]) [µg/mL] | MIC (S. aureus; [12]) [µg/mL] | MIC (C. difficile ATCC 43255 [2]; C. difficile ATCC43255) [µg/mL] | MIC (C. difficile ATCC 43255 [2]; strain ATCC43255) [µg/mL] | MIC [3] [µg/mL] | MIC [4] [µg/mL] | MIC [5] [µg/mL] | MIC [6] [µg/mL] | MIC [7] [µg/mL] | MIC (Veillonella sp. HM-49) [µg/mL] | MIC (Eubacterium sp. HM-178) [µg/mL] | MIC (E. faecium; E. faecium 106 (Van R)) [µg/mL] | MIC (E. faecium; [17]) [µg/mL] | MIC (A. baumanii ATCC17961) [µg/mL] | MIC (P. aeruginosa ATCC27853) [µg/mL] | MIC (E. aerogenes ATCC35029) [µg/mL] | MIC (E. coli ATCC25922) [µg/mL] | activity against Gram-negative organisms (Gram-negative bacteria) | bactericidal or bacteriostatic (C. difficile ATCC 43255 [9]) | also measured
1 | FC(F)(F)c1ccc(Oc2ccc(-c3noc(-c4ccc5[nH]ccc5c4)n3)cc2)cc1 [Compound 1] | 2 (≈ 4.75 µM) | 4 (≈ 9.49 µM) | 4 (≈ 9.49 µM) | 2 (≈ 4.75 µM) | 2 (≈ 4.75 µM) | 4 (≈ 9.49 µM) | 0.25 (≈ 0.593 µM) | 2 (≈ 4.75 µM) | 1 (≈ 2.37 µM) | >128 | >128 | 2 (≈ 4.75 µM) |  |  |  |  |  |  |  |  | IC50 (THP-1 cells; THP-1 cells, 24 h, read-out: LDH (IC50)): 69 ± 6 µg/mL (≈ 164 µM); IC50 (THP-1 cells; THP-1 cells, read-out: toxicity IC50 (LDH assay)): > 50 µg/mL; MIC (C. difficile ATCC 43255 [2]; [13]): 4 µg/mL (≈ 9.49 µM)
2 | Oc1ccc(-c2nc(-c3ccc(OC4CCCC4)cc3)no2)cc1 [Compound 2] | 2 (≈ 6.2 µM) | 2 (≈ 6.2 µM) | 2 (≈ 6.2 µM) | 2 (≈ 6.2 µM) | 2 (≈ 6.2 µM) | 2 (≈ 6.2 µM) | 1 (≈ 3.1 µM) | 0.5 (≈ 1.55 µM) | 2 (≈ 6.2 µM) | >128 | >128 | 4 (≈ 12.4 µM) |  |  |  |  |  |  |  |  | IC50 (THP-1 cells; [14]): 18 ± 1 µg/mL (≈ 55.8 µM); MIC (C. difficile ATCC 43255 [2]; [13]): 2 µg/mL (≈ 6.2 µM)
3 | O=[N+]([O-])c1cnc(-c2nc(-c3ccc(OC4CCCC4)cc3)no2)[nH]1 [Compound 57, 3-(4-(Cyclopentyloxy)phenyl)-5-(4-nitro-1H-imidazol-2-yl)-1,2,4-oxadiazole] | 0.125 (≈ 0.366 µM) | 0.25 (≈ 0.732 µM) |  |  |  |  |  |  |  |  |  |  | 128 (≈ 375 µM) | 128 (≈ 375 µM) | > 128 | > 128 | > 128 | > 128 | no activity | bactericidal | MIC (C. difficile ATCC 43255 [1]; ATCC43255, C. difficile ATCC43255, read-out: ATCC43255 MIC): 0.25 µg/mL (≈ 0.732 µM); MIC (C. difficile ATCC 43255 [1]; ATCC43255, C. difficile ATCC43255, read-out: MIC): 0.25 µg/mL (≈ 0.732 µM); MIC (C. difficile ATCC 43255 [1]; ATCC43255, strain ATCC43255, read-out: MIC): 0.25 µg/mL (≈ 0.732 µM); MIC (S. aureus; [15]): 64 µg/mL (≈ 188 µM); MIC (S. aureus; Staphylococcus aureus, S. aureus VRS2, read-out: MIC): 32 µg/mL (≈ 93.8 µM); MIC [8, 16]: 32 µg/mL (≈ 93.8 µM); IC50 (THP-1 cells; [14]): > 128 µg/mL; IC50 (THP-1 cells; THP-1, read-out: toxicity IC50 (LDH assay)): > 50 µg/mL
4 | CCc1c(Cl)c(O)c(Cl)c(O)c1C(=O)O[C@H]1[C@H](O)[C@H](OC)[C@H](OC/C2=C\C=C\C[C@H](O)/C(C)=C/[C@H](CC)[C@@H](O[C@@H]3OC(C)(C)[C@@H](OC(=O)C(C)C)[C@H](O)[C@@H]3O)/C(C)=C/C(C)=C/C[C@@H]([C@@H](C)O)OC2=O)O[C@@H]1C [FDX, fidaxomicin] |  |  |  | 0.06 (≈ 0.0567 µM) | 0.06 (≈ 0.0567 µM) | >32 | <0.01 | <0.06 | <0.06 | >32 | 8 (≈ 7.56 µM) | 16 (≈ 15.1 µM) | >16 | > 16 | > 128 | > 128 | > 128 | > 128 | no activity | bactericidal | MIC (S. aureus; [15]): 64 µg/mL (≈ 60.5 µM); MIC [8, 16]: 16 µg/mL (≈ 15.1 µM)
5 | Cc1ncc([N+](=O)[O-])n1CCO [MTZ, metronidazole] |  |  |  |  |  |  | 0.05 (≈ 0.292 µM) | >32 |  | >32 |  |  | >16 | > 16 | > 128 | > 128 | > 128 | > 128 | no activity | bactericidal | MIC (S. aureus; S. aureus VRS2): >256 µg/mL; MIC (S. aureus; Staphylococcus aureus): > 256 µg/mL; MIC (S. aureus; Staphylococcus aureus, ATCC27660): > 256 µg/mL; MIC (S. aureus; Staphylococcus aureus, ATCC29213): > 256 µg/mL; MIC [8]: > 256 µg/mL; MIC (E. faecium; Enterococcus faecium, NCTC7171, E. faecium NCTC 7171, read-out: MIC): > 128 µg/mL
